In series [1] the target is T1, GRB2 (Homo sapiens, UniProt P62993). In words: fluorescence anisotropy assay measuring GRB2 dimerization. The class given is biochemical. The settings on record: 100 nM Atto488 labeled GRB2; NB = No Binding (inability to induce GRB2 dimerization); read-out: EC50 anisotropy, compound induced GRB2 dimerization. The method, then:
FIGS. 16A & 16B show fluorescence anisotropy assay data measuring GRB2 dimerization. 100 nM Atto488 labeled GRB2, which is below its dimer forming concentration, was used to identify compounds that induce dimerization. […] Note that NB represent compounds inability to induce GRB2 dimerization.
GRB2 dimerization was measured by fluorescence anisotropy assay. 100 nM Atto488 labeled GRB2, which is below its dimer forming concentration, was used to identify compounds that induce dimerization. […] Note that NB represent compounds inability to induce GRB2 dimerization.
On the technique in general: Polarisation of emitted light reports the rotation of a fluorescent probe.

Series [2] in a line: Sulforhodamine B (SRB) cytotoxicity in HEK293T cells. The series is classed as cell-based. The note with it: human. The procedure: (§1) Titrating concentrations of each compounds were used to treat cells for 72 hours. The data was normalized against 100% survival at the lowest inhibitor concentration. Graphs for IC50 were fitted to the four-parameter logistic equation using Prism8. Error bars show the percent coefficient of variation. Equivalent concentrations of DMSO were used as a negative control.
(§2) SRB cytotoxicity analysis was also performed using GRB152 in HEK293T and MDA-MB-231 cells. Cells were exposed to various concentrations of compound for 72 h before viability measurements.

Another series deals with OVCAR5 cells. In words: nuclear fragmentation of OVCAR5 cells, high-throughput assay. The series is classed as cell-based. The settings on record: for quantitation of fragmented nucleus among Series-1 GRB001 analogues: OVCAR5 cells. An excerpt: The intensity of the red color represents nuclear condensation indicative of apoptotic cells.
For series [3], the target named is T1, GRB2. Nature of the series: ITC binding to GRB2. The note with it: read-out: Kd, ITC binding isotherm. An excerpt:
Validation of in vitro binding of GRB001 to GRB2 with ITC as an alternative technique. […] GRB001 is able to bind GRB2 in two different conformations as reflected by the energy signature (inset).
FIGS. 14A-14C show ITC binding isotherm of GRB001 binding to GRB2 as in FIG. 4 (FIG. 14A).

A short description of series [4]: Sulforhodamine B (SRB) cytotoxicity in MDA-MB-231 cells. The series is classed as cell-based. The settings on record: human. The procedure:
as §1, §2

Some results are limits rather than exact numbers.

T1 sequence (P62993 whole entry): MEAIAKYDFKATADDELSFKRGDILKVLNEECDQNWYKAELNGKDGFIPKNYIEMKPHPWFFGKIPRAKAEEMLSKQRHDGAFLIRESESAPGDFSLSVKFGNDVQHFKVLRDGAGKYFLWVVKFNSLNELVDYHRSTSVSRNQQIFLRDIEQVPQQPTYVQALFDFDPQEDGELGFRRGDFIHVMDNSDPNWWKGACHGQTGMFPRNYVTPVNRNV

The term EC50 denotes the concentration that produces a half-maximal response. As for `O=C1Cc2cc(NC(=O)Nc3cc(F)cc(F)c3)ccc2N1` [GRB085], the EC50 on GRB2 [1] turned out to be 1.1 µM.
The same measure, in the same setting: as for `O=C1Cc2cc(NC(=O)Nc3cccc(Br)c3)ccc2N1` [GRB087], the figure is 4.6 µM; as for `COC(=O)c1cccc(NC(=O)c2ccc3[nH]c(S)nc3c2)c1` [GRB076], 62 µM.
The same measure, in the same setting: as for `Cc1ccc(NC(=O)Nc2ccc3[nH]c(=O)[nH]c3c2)c(C)c1` [GRB026], the figure is 8.2 µM.
Regarding `Cc1cc(C)cc(NC(=O)Nc2ccc3[nH]c(SCc4ccc(F)cc4)nc3c2)c1` [GRB067], the EC50 on GRB2 [1] turned out to be 48 µM.
On the same count and under the same terms, as for `CCN1C(=O)Cc2cc(NC(=O)Nc3ccc(Cl)c(Cl)c3)ccc21` [GRB009], the figure is 5.5 µM.
On to `CCN1C(=O)Cc2cc(NC(=O)Nc3ccc(Cl)cc3)ccc21` [GRB010], for which the EC50 on GRB2 [1] turned out to be 3.9 µM.
On the same count and under the same terms, the same measure for `O=C(Nc1ccc(F)cc1)Nc1ccc2[nH]c(=O)[nH]c2c1` [GRB047]: 9.7 µM.
Usually IC50 stands for the point on the concentration scale where inhibition reaches its midpoint. Read a high IC50 as weaker potency. In series [2], `COc1ccc(Cl)cc1NC(=O)Nc1ccc2[nH]c(=O)oc2c1` [GRB161] had an IC50 at 72 h greater than 120 µM.
Consider `O=C1Cc2cc(NC(=O)Nc3ccc4c(c3)OCO4)ccc2N1` [GRB005], for which the “quantitation of fragmented nucleus among Series-1 GRB001 analogues” value in the series on OVCAR5 cells is given as “highest level of fragmented nucleus”.
On to `Cc1ccc(NC(=O)Nc2ccc3c(c2)CC(=O)N3)c(C)c1` [GRB093], for which, on GRB2 [1], the EC50 is 15.5 µM.
Take `O=C1Cc2cc(NC(=S)Nc3cccc(Cl)c3)ccc2N1` [GRB095]: on GRB2 [1], the EC50 was determined as 50.9 µM.
Take `Cc1ccc(NC(=O)Nc2ccc3[nH]c(=O)[nH]c3c2)c(C)c1` [GRB029]: on GRB2 [1], the EC50 amounted to 16.3 µM.
The same measure, in the same setting: as for `O=C(Nc1cc(Cl)cc(Cl)c1)Nc1ccc2[nH]c(=O)[nH]c2c1` [GRB028], the figure is 10.2 µM; as for `O=C1Cc2cc(NC(=O)NC(=O)c3ccccc3)ccc2N1` [GRB091], 13.3 µM.
Regarding `COc1cccc(NC(=O)Nc2ccc3[nH]c(S)nc3c2)c1` [GRB061], at GRB2 [1], the concentration for a half-maximal effect (EC50) turned out to be 129 µM.
`CC(=O)c1cccc(NC(=O)Nc2ccc3[nH]c(SCc4ccc(F)cc4)nc3c2)c1` [GRB073]: the EC50 on GRB2 [1] amounted to 15 µM.
Consider `O=C1Cc2cc(NC(=O)Nc3cccc(Cl)c3)ccc2N1` [GRB004], for which, on GRB2 [1], the EC50 came to 26 µM.
The same measure, in the same setting: as for `O=C(Cc1ccc(F)cc1)Nc1ccc2[nH]c(S)nc2c1` [GRB074], the figure is 205 µM.
For the compound `O=C(NCc1ccc(F)cc1)Nc1ccc2[nH]c(SCc3ccc(F)cc3)nc2c1` [GRB066], the EC50 on GRB2 [1] amounted to 246 µM.
Same read-out and setting: the same measure for `O=c1[nH]c2ccc(NC(=S)Nc3ccc(Cl)c(Cl)c3)cc2[nH]1` [GRB048]: 8.3 µM; for `O=C(Nc1ccc(Cl)c(Cl)c1)Nc1ccc2[nH]c(=O)[nH]c2c1` [GRB022]: 2.1 µM; for `COc1cc(NC(=O)Nc2ccc3[nH]c(=O)[nH]c3c2)cc(OC)c1OC` [GRB032]: greater than 100 µM.
The same measure, in the same setting: as for `COc1ccccc1NC(=O)Nc1ccc2c(c1)CC(=O)N2` [GRB012], the figure is 4.5 µM.
In the case of `O=C(Nc1ccc2ccccc2c1)Nc1ccc2[nH]c(SCc3ccc(F)cc3)nc2c1` [GRB070], the EC50 on GRB2 [1] was found to be 128 µM.
`O=C(Nc1ccccc1)Nc1ccc2[nH]c(S)nc2c1` [GRB064]: the EC50 on GRB2 [1] worked out at 116 µM.
Same read-out and setting: the same measure for `O=C(Nc1ccccc1)Nc1ccc2[nH]c(SCc3ccc(F)cc3)nc2c1` [GRB065]: 350 µM.
For the compound `O=C1Cc2cc(NC(=O)Nc3ccc(Cl)c(Cl)c3)ccc2N1` [GRB002], the “nuclear fragmentation of OVCAR5 cells” value in the series with OVCAR5 cells (500 nM compound) is given as “inducing nuclear fragmentation”. The “quantitation of fragmented nucleus among Series-1 GRB001 analogues” value with OVCAR5 cells was “highest level of fragmented nucleus”.
As to `O=C(Nc1cccc(F)c1)Nc1ccc2[nH]c(=O)[nH]c2c1` [GRB023], on GRB2 [1], the half-maximal effective concentration (EC50) was 3.1 µM.
The same measure, in the same setting: the same measure for `O=C(NCc1ccccc1)Nc1ccc2[nH]c(=O)[nH]c2c1` [GRB049]: 11.5 µM.
The same measure, in the same setting: as for `CCOC(=O)CNC(=O)Nc1ccc2[nH]c(=O)[nH]c2c1` [GRB027], the figure is 10.1 µM.
On the same count and under the same terms, as for `COc1cccc(NC(=O)Nc2ccc3c(c2)CC(=O)N3C)c1` [GRB007], the figure is 15.7 µM.
As for `Cc1cc(NC(=O)Nc2ccc3c(c2)CC(=O)N3)ccc1Cl` [GRB090], the EC50 on GRB2 [1] worked out at 13 µM.
Turning to `O=C(Nc1cc(F)cc(F)c1)Nc1ccc2[nH]c(=O)[nH]c2c1` [GRB024], the EC50 at GRB2 [1] came to 4.6 µM.
On the same count and under the same terms, the same measure for `O=C(Nc1cccc(C(F)(F)F)c1)Nc1ccc2[nH]c(=O)[nH]c2c1` [GRB046]: 2 µM; for `Cc1ccc(S(=O)(=O)Nc2ccc3[nH]c(S)nc3c2)cc1` [GRB078]: 436 µM; for `COc1ccccc1NC(=O)Nc1ccc2[nH]c(=O)[nH]c2c1` [GRB051]: greater than 100 µM.
Still for that read-out and setting: as for `O=C(Nc1cc(F)cc(F)c1)Nc1ccc2[nH]c(SCc3ccc(F)cc3)nc2c1` [GRB071], the figure is 225 µM; as for `COC(=O)c1cccc(NC(=O)Nc2ccc3[nH]c(=O)[nH]c3c2)c1` [GRB033], greater than 100 µM; as for `Cc1ccc(NC(=O)Nc2ccc3[nH]c(=O)[nH]c3c2)cc1` [GRB021], 1 µM.
`Cc1cc(Br)ccc1NC(=O)Nc1ccc2[nH]c(=O)[nH]c2c1` [GRB020]: at GRB2 [1], the EC50 was 0.75 µM.
The same measure, in the same setting: the same measure for `N#Cc1ccc(NC(=O)Nc2ccc3[nH]c(S)nc3c2)cc1` [GRB063]: 124 µM; for `COc1cccc(NC(=O)Nc2ccc3[nH]c(=O)oc3c2)c1` [GRB105]: 9.7 µM; for `Cc1cccc(NC(=O)Nc2ccc3[nH]c(=O)[nH]c3c2)c1C` [GRB030]: 37.3 µM.
On the same count and under the same terms, the same measure for `O=C(Nc1ccc(F)c(Cl)c1)Nc1ccc2[nH]c(=O)[nH]c2c1` [GRB031]: 40.3 µM.
On the same count and under the same terms, the same measure for `O=c1[nH]c2ccc(NC(=S)NCCN3CCOCC3)cc2[nH]1` [GRB050]: 56 µM.
A word on the Kd: it is the equilibrium constant for the complex coming apart. On to `O=C1Cc2cc(NC(=O)Nc3cc(Cl)cc(Cl)c3)ccc2N1` [GRB092], for which the Kd on GRB2 [3] was 0.527 ± 0.367 µM. For the same compound, the EC50 on GRB2 [1] amounted to 13.8 µM.
`O=C1Cc2cc(NC(=O)Nc3ccc(F)c(Cl)c3)ccc2N1` [GRB088]: the 50% effective concentration (EC50) on GRB2 [1] is 8.3 µM.
Take `O=C(Nc1cc(Cl)cc(Cl)c1)Nc1ccc2[nH]c(=O)oc2c1` [GRB101]: the EC50 at GRB2 [1] amounted to 13 µM.
Same read-out and setting: the same measure for `COC(=O)c1cccc(NC(=O)Nc2ccc3c(c2)CC(=O)N3)c1` [GRB094]: 23 µM; for `CSc1nc2cc(C(=O)Nc3cccc(F)c3)ccc2[nH]1` [GRB077]: 502 µM; for `Cc1ccc(NC(=O)Nc2ccc3[nH]c(=O)oc3c2)cc1` [GRB104]: 3.1 µM.
Still for that read-out and setting: as for `O=C1Cc2cc(NC(=O)Nc3cccs3)ccc2N1` [GRB003], the figure is 9.7 µM; as for `N#Cc1cccc(NC(=O)Nc2ccc3[nH]c(=O)[nH]c3c2)c1` [GRB025], 6 µM.
The same measure, in the same setting: the same measure for `O=C(Nc1cccc(F)c1)Nc1ccc2[nH]c(SCc3ccc(F)cc3)nc2c1` [GRB075]: 23 µM; for `O=C1Cc2cc(NC(=S)Nc3ccc(Cl)c(Cl)c3)ccc2N1` [GRB086]: 1.5 µM.
For `Cc1ccccc1NC(=O)Nc1ccc2[nH]c(S)nc2c1` [GRB058], on GRB2 [1], the EC50 is 2 µM.
Consider `CN1C(=O)Cc2cc(NC(=O)Nc3ccc(F)cc3)ccc21` [GRB006], for which, on GRB2 [1], the EC50 came to 2.7 µM.
`Cc1cc(C)cc(NC(=O)Nc2ccc3[nH]c(S)nc3c2)c1` [GRB062]: the EC50 on GRB2 [1] is 78 µM.
With `O=c1[nH]c2ccc(NC(=S)Nc3ccc(Cl)c(Cl)c3)cc2o1` [GRB152], the IC50 at 72 h was found to be 12.1 ± 1.5 µM in series [4] and 1.5 ± 0.5 µM in series [2].
Turning to `O=C(Nc1cc(F)cc(F)c1)Nc1ccc2[nH]c(S)nc2c1` [GRB060], the EC50 on GRB2 [1] came out at 2.4 µM.
Same read-out and setting: as for `COc1cccc(NC(=O)Nc2ccc3[nH]c(=O)[nH]c3c2)c1` [GRB034], the figure is 264 µM.
On to `O=C(Nc1cc(F)cc(F)c1)Nc1ccc2[nH]c(=O)oc2c1` [GRB102], for which the EC50 at GRB2 [1] was greater than 100 µM.
Same read-out and setting: as for `Cc1cccc(NC(=O)Nc2ccc3c(c2)CC(=O)N3)c1C` [GRB089], the figure is 9.1 µM.

The record behind these values is patent US12599583B2, “Small molecule GRB2 stabilizers for Ras map kinase inhibition” (Board of Regents, The University of Texas System, priority 2019, dated 2026).
